# Test results: US11840686B2, “Modulation of prekallikrein (PKK) expression” (Ionis Pharmaceuticals, Inc., priority 2013, dated 2023)
# Strand notation (5' to 3'): a small letter for the sugar, then the base; units joined by * are phosphorothioate-linked, units joined directly phosphodiester-linked; [ ] holds rarer units or linkages, { } end groups; capitals alone tell only the bases. e = 2'-O-(2-methoxyethyl) (MOE); [5mC] = 5-methylcytosine; d = 2'-deoxy (DNA)
# Key:
# [1] = test system: human PKK mRNA; experiment: Antisense inhibition of human PKK mRNA in HepaRG cells, 5,000 nM (Example 2); format: cell-based
# Method in brief: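 HepaRG cells, 20,000 per well, were electroporated with 5,000 nM MOE gapmer (phosphorothioate, 5-methylcytosine) and incubated about 24 hours. PKK mRNA was quantified by qRT-PCR with primer probe set RTS3454, normalized to RIBOGREEN total RNA, and expressed as percent inhibition versus untreated controls.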
# [2] = test system: human PKK mRNA; experiment: Dose-dependent antisense inhibition of human PKK in HepaRG cells, 0.19-5.00 uM (Example 5); format: cell-based; settings: HepaRG cells; for percent inhibition of PKK at 0.19 μM / percent inhibition of PKK at 0.56 μM / percent inhibition of PKK at 1.67 μM / percent inhibition of PKK at 5.00 μM / percent inhibition of PKK at 0.19 0μM / percent inhibition of PKK at 0.56 0μM / percent inhibition of PKK at 1.67 1μM: electroporation, approximately 16 hours; for percent inhibition of PKK mRNA, 0.19 μM: 0.19 μM antisense oligonucleotide; for percent inhibition of PKK mRNA, 0.56 μM: 0.56 μM antisense oligonucleotide; for percent inhibition of PKK mRNA, 1.67 μM: 1.67 μM antisense oligonucleotide; for percent inhibition of PKK mRNA, 5.00 μM: 5.00 μM antisense oligonucleotide
# Protocol: Cells were plated at a density of 20,000 cells per well and transfected using electroporation with 0.19 μM, 0.56 μM, 1.67 μM, and 5.00 μM concentrations of antisense oligonucleotide. After a treatment period of approximately 16 hours, RNA was isolated from the cells and PKK mRNA levels were measured by quantitative real-time PCR. Human PKK primer probe set RTS3454 was used to measure mRNA levels. PKK mRNA levels were adjusted according to total RNA content, as measured by RIBOGREEN®. The antisense oligonucleotides were tested in a series of experiments that had similar culture conditions.
# The half maximal inhibitory concentration (IC50) of each oligonucleotide is also presented.
# [3] = HepaRG cells, electroporation with 5,000 nM antisense oligonucleotide, approximately 24 hours, PKK mRNA by RT-PCR (RTS3454), relative to untreated control cells, Table 6 experiment
# [4] = 4 point dose response, Table 37
# [5] = HepaRG cells, 5,000 nM antisense oligonucleotide, 5-10-5 gapmers, Table 16
# [6] = 4 point dose response, Table 35
# [7] = human PKK mRNA, HepaRG cells, 5,000 nM antisense oligonucleotide, Table 18
# [8] = 4 point dose response, Table 40
# [9] = 4 point dose response, Table 39
# [10] = 4 point dose response, Table 41
substance,measurement,setting,value
547360 (eA*eA*e[5mC]*e[5mC]*eA*dA*dT*dT*dT*d[5mC]*dT*dG*dA*dA*dA*eG*eG*eG*e[5mC]*eA; antisense) [compound 547360],% inhibition,[1]; [3],88%
same,percent inhibition of PKK at 0.19 μM,[2]; Table 37,8%
same,percent inhibition of PKK at 0.56 μM,[2]; Table 37,27%
same,percent inhibition of PKK at 1.67 μM,[2]; Table 37,76%
same,percent inhibition of PKK at 5.00 μM,[2]; Table 37,76%
same,IC50,[2]; [4],800 nM
547694 (antisense eG*eT*e[5mC]*eA*e[5mC]*dT*dG*dT*dA*d[5mC]*d[5mC]*dT*dA*dT*dA*eA*e[5mC]*eT*eG*eT) [compound 547694],% inhibition,[1]; [5],92%
same,percent inhibition of PKK at 0.19 μM,[2]; Table 35,0%
same,percent inhibition of PKK at 0.56 μM,[2]; Table 35,29%
same,percent inhibition of PKK at 1.67 μM,[2]; Table 35,67%
same,percent inhibition of PKK at 5.00 μM,[2]; Table 35,90%
same,IC50,[2]; [6],1200 nM
548756 (antisense eG*eT*eA*eT*d[5mC]*dA*d[5mC]*dT*dG*dT*dA*d[5mC]*dT*eA*eG*eT*eT) [compound 548756],% inhibition,[1]; [7],81%
same,percent inhibition of PKK at 0.19 μM,[2]; Table 40,0%
same,percent inhibition of PKK at 0.56 μM,[2]; Table 40,4%
same,percent inhibition of PKK at 1.67 μM,[2]; Table 40,16%
same,percent inhibition of PKK at 5.00 μM,[2]; Table 40,86%
same,IC50,[2]; [8],> 5000 nM
546848 (eT*e[5mC]*eA*e[5mC]*eT*dG*dT*d[5mC]*d[5mC]*dT*dA*dT*dA*dT*d[5mC]*eA*e[5mC]*eT*eG*eT; antisense) [compound 546848],% inhibition,"[1]; Table 13, human PKK mRNA in HepaRG cells, 5-10-5 gapmers",86%
same,percent inhibition of PKK at 0.19 μM,[2]; Table 39,0%
same,percent inhibition of PKK at 0.56 μM,[2]; Table 39,18%
same,percent inhibition of PKK at 1.67 μM,[2]; Table 39,91%
same,percent inhibition of PKK at 5.00 μM,[2]; Table 39,97%
same,IC50,[2]; [9],1000 nM
547340 (antisense e[5mC]*eT*e[5mC]*e[5mC]*eT*d[5mC]*dT*d[5mC]*dA*dT*dA*dT*d[5mC]*dA*dA*e[5mC]*eT*e[5mC]*e[5mC]*eT) [compound 547340],% inhibition,[1]; [3],93%
same,percent inhibition of PKK at 0.19 μM,[2]; Table 35,46%
same,percent inhibition of PKK at 0.56 μM,[2]; Table 35,79%
same,percent inhibition of PKK at 1.67 μM,[2]; Table 35,88%
same,percent inhibition of PKK at 0.19 0μM,[2]; Table 41,34%
same,percent inhibition of PKK at 0.56 0μM,[2]; Table 41,84%
same,percent inhibition of PKK at 1.67 1μM,[2]; Table 41,96%
same,IC50,[2]; [6],200 nM
same,IC50,[2]; [10],300 nM
547718 (eA*eT*eA*eA*eA*dG*dT*dG*d[5mC]*dG*dA*dT*dT*dA*dA*eG*e[5mC]*e[5mC]*e[5mC]*e[5mC]; antisense) [compound 547718],% inhibition,[1]; [5],86%
same,percent inhibition of PKK at 0.19 μM,[2]; Table 39,36%
same,percent inhibition of PKK at 0.56 μM,[2]; Table 39,12%
same,percent inhibition of PKK at 1.67 μM,[2]; Table 39,69%
same,percent inhibition of PKK at 5.00 μM,[2]; Table 39,74%
same,IC50,[2]; [9],1600 nM
547335 (antisense eT*eT*eA*eT*eA*dA*dA*dT*dG*dT*d[5mC]*dT*d[5mC]*dG*dA*eT*eG*eG*e[5mC]*eA) [compound 547335],% inhibition,[1]; [3],93%
same,percent inhibition of PKK at 0.19 μM,[2]; Table 35,8%
same,percent inhibition of PKK at 0.56 μM,[2]; Table 35,52%
same,percent inhibition of PKK at 1.67 μM,[2]; Table 35,85%
same,percent inhibition of PKK at 5.00 μM,[2]; Table 35,92%
same,IC50,[2]; [6],700 nM
same,"percent inhibition of PKK mRNA, 0.19 μM",[2],0%
same,"percent inhibition of PKK mRNA, 0.56 μM",[2],13%
same,"percent inhibition of PKK mRNA, 1.67 μM",[2],73%
same,"percent inhibition of PKK mRNA, 5.00 μM",[2],95%
same,IC50,[2]; 0.19-5.00 μM,1300 nM
548744 (DNA eT*e[5mC]*eA*e[5mC]*dT*dG*dT*dA*d[5mC]*dT*dA*dG*dT*eT*eT*e[5mC]*e[5mC]; antisense) [compound 548744],% inhibition,[1]; [7],83%
same,percent inhibition of PKK at 0.19 μM,[2]; Table 38,14%
same,percent inhibition of PKK at 0.56 μM,[2]; Table 38,35%
same,percent inhibition of PKK at 1.67 μM,[2]; Table 38,63%
same,percent inhibition of PKK at 5.00 μM,[2]; Table 38,83%
same,IC50,"[2]; 4 point dose response, Table 38",1000 nM
546849 (eA*eT*e[5mC]*eA*e[5mC]*dT*dG*dT*d[5mC]*d[5mC]*dT*dA*dT*dA*dT*e[5mC]*eA*e[5mC]*eT*eG; antisense) [compound 546849],% inhibition,"[1]; human PKK mRNA in HepaRG cells, 5-10-5 gapmers, Table 14",93%
same,percent inhibition of PKK at 0.19 μM,[2]; Table 35,23%
same,percent inhibition of PKK at 0.56 μM,[2]; Table 35,35%
same,percent inhibition of PKK at 1.67 μM,[2]; Table 35,83%
same,percent inhibition of PKK at 5.00 μM,[2]; Table 35,91%
same,IC50,[2]; [6],700 nM
same,"percent inhibition of PKK mRNA, 0.19 μM",[2],13%
same,"percent inhibition of PKK mRNA, 0.56 μM",[2],45%
same,"percent inhibition of PKK mRNA, 1.67 μM",[2],84%
same,"percent inhibition of PKK mRNA, 5.00 μM",[2],98%
same,IC50,[2]; 0.19-5.00 μM,700 nM
547273 (antisense eT*eG*eA*eG*eT*d[5mC]*dT*d[5mC]*dT*dT*dG*dT*d[5mC]*dA*d[5mC]*eT*eT*eA*eA*eA) [compound 547273],% inhibition,"[1]; HepaRG cells, electroporation with 5,000 nM antisense oligonucleotide, approximately 24 hours, PKK mRNA by RT-PCR (RTS3454), relative to untreated control cells, Table 5 experiment",93%
same,percent inhibition of PKK at 0.19 μM,[2]; Table 35,44%
same,percent inhibition of PKK at 0.56 μM,[2]; Table 35,69%
same,percent inhibition of PKK at 1.67 μM,[2]; Table 35,87%
same,percent inhibition of PKK at 5.00 μM,[2]; Table 35,87%
same,percent inhibition of PKK at 5.00 μM,[2]; Table 41,83%
same,percent inhibition of PKK at 0.19 0μM,[2]; Table 41,0%
same,percent inhibition of PKK at 0.56 0μM,[2]; Table 41,60%
same,percent inhibition of PKK at 1.67 1μM,[2]; Table 41,82%
same,IC50,[2]; [6],200 nM
same,IC50,[2]; [10],600 nM
547349 (antisense e[5mC]*eT*eT*e[5mC]*eA*dA*d[5mC]*dA*d[5mC]*dT*dG*d[5mC]*dT*dA*dA*e[5mC]*e[5mC]*eT*eT*eA) [compound 547349],% inhibition,[1]; [3],88%
same,percent inhibition of PKK at 0.19 μM,[2]; Table 37,0%
same,percent inhibition of PKK at 0.56 μM,[2]; Table 37,8%
same,percent inhibition of PKK at 1.67 μM,[2]; Table 37,66%
same,percent inhibition of PKK at 5.00 μM,[2]; Table 37,76%
same,IC50,[2]; [4],1600 nM
547341 (antisense eG*eA*e[5mC]*eT*e[5mC]*d[5mC]*dT*d[5mC]*dT*d[5mC]*dA*dT*dA*dT*d[5mC]*eA*eA*e[5mC]*eT*e[5mC]) [compound 547341],% inhibition,[1]; [3],87%
same,percent inhibition of PKK at 0.19 μM,[2]; Table 39,36%
same,percent inhibition of PKK at 0.56 μM,[2]; Table 39,58%
same,percent inhibition of PKK at 1.67 μM,[2]; Table 39,91%
same,percent inhibition of PKK at 5.00 μM,[2]; Table 39,95%
same,IC50,[2]; [9],300 nM
same,"percent inhibition of PKK mRNA, 0.19 μM",[2],45%
same,"percent inhibition of PKK mRNA, 0.56 μM",[2],44%
same,"percent inhibition of PKK mRNA, 1.67 μM",[2],81%
same,"percent inhibition of PKK mRNA, 5.00 μM",[2],95%
same,IC50,[2]; 0.19-5.00 μM,600 nM
547728 (eG*eA*eG*eA*eT*dT*dG*dG*dT*dG*dG*dT*dG*dG*dG*eT*eG*eG*e[5mC]*eA; antisense) [compound 547728],% inhibition,"[1]; HepaRG cells, 5,000 nM antisense oligonucleotide, 5-10-5 gapmers, Table 17",88%
same,percent inhibition of PKK at 0.19 μM,[2]; Table 40,0%
same,percent inhibition of PKK at 0.56 μM,[2]; Table 40,2%
same,percent inhibition of PKK at 1.67 μM,[2]; Table 40,16%
same,percent inhibition of PKK at 5.00 μM,[2]; Table 40,61%
same,IC50,[2]; [8],4400 nM
